Positions of bridges follow the written chain, without caps; N, C: chain ends. No end group written: not given here.
B1: MIP-1α: cytokine macrophage inflammatory protein 1-alpha, previously characterized stem cell inhibitor (protein, UniProt P10147 24-92, looked up)
C-C motif chemokine 3: SLAADTPTACCFSYTSRQIPQNFIADYFETSSQCSKPGVIFLTKRSRQVCADPSEEWVQKYVSDLELSA

Key:
CFU-MIX [1] = test: CFU-MIX cycling assay in vitro (Ara C kill); assay type: cell-based, mouse; conditions: Table 19, 100 ng/ml
Method: A similar assay can be performed in vitro, using the cycling status of CFU-MIX instead of CFU-S. The assay is performed as described above for the CFU-S assay except that cytosine arabinoside (Ara C, 30 micrograms/ml) is used as the cycle-specific toxic agent instead of high dose tritiated thymidine (see B. I. Lord in Haemopoiesis—A Practical Approach, N. G. Testa and G. Molineux (Eds.), IRL Press 1993; Pragnell et al. in Culture of Hematopoietic Cells, R. I. Freshney, I. B. Pragnell and M. G. Freshney (Eds.), Wiley Liss 1994) and a mouse strain with high endogenous cycling rates (Balb/c) is used instead of testosterone-treated BDFI mice.
(§1) 24 hours later (Day 1), varying doses of peptide 43-55 or vehicle were injected i.v. Bone marrow was harvested on Day 2 and the […] cycling assay conducted as in Example 14. Specifically, mice were sacrificed and single cell bone marrow suspensions prepared from the femurs. The cells were washed once and the concentration adjusted to 5×10^6 cells/ml in Fischer medium. For each test condition, one milliliter of cells was added to each of two polypropylene tubes. The tubes were incubated at 37° C. for 3 hours without (“Control”) or with (“Experimental”) the appropriate concentration of test substance. At the end of the incubation, 30 μg/ml of cytosine arabinoside (“Ara C” (Sigma)) was added to half of the tubes and the same volume of Fischer's medium was added to the others. The tubes were incubated for a further 1 hour at 37° C., after which they were placed on ice and washed twice with cold Fischer medium.
(§2) The cells were readjusted to 5×10^4-10^6/ml in Fischer's medium and 0.5 ml of cell suspension added to 5 ml of Methocult M3430 methylcellulose medium (Stem Cell Technologies, Vancouver, British Columbia). The mixture was vigorously mixed with a vortex and 1 ml was dispensed into each of five 35 mm dishes. The 35 mm dishes were in turn placed in a covered 150 mm dish with one open 35 mm dish containing sterile water. CFU-MIX colonies were counted with the use of an inverted microscope after 7 days of incubation at 37° C.
Differences in colony number between the tubes treated with medium versus the tubes treated with Ara C represent the percentage of cells in cycle under that condition according to the formula:
a=Number of CFU-MIX from tube incubated with medium alone
b=Number of CFU-MIX from tube incubated with Ara C

CFU-MIX [2] = test: CFU-MIX cycling assay after in vivo injection into testosterone or 5FU treated mice; design: species or system mouse; conditions: Table 23, 5FU-pretreated animals, 0.5 ng i.v. per 20 gram mouse
Method: In order to test the ability of purified porcine hemoglobin chains to act in vivo, BDF1 mice were injected with testosterone propionate as described in Example 1. Twenty four hours later, mice received 500 ng of either pINPROL, porcine hemoglobin alpha chain (purified from peripheral red blood cells as in FIG. 21), porcine beta chain (purified from peripheral red blood cells as in FIG. 21) or the equivalent volume of carrier intravenously. Forty eight hours later the bone marrow from each mouse was harvested and the CFU-MIX assay conducted as described in Example 14.
To assess the stem cell inhibitory activity of peptide 43-55 in vivo, B6D2 F1 mice were pre-treated with testosterone propionate as described in Example 1 or with 5FU. Specifically, testosterone propionate (100 mg/kg body weight) was injected i.p. on Day 0 into mice. Alternatively, mice were injected on Day 0 with 5FU ([…] body weight).
as §1, §2
Differences in colony number between the tubes treated with medium versus the tubes treated with Ara C represent the percentage of cells in cycle under that condition according to the formula: […]

CFU-GEMM = CFU-GEMM cycling assay, human umbilical cord blood cells; assay type: cell-based; conditions: Table 32, cord blood mononuclear cells
Method: In order to investigate the ability of purified INPROL from porcine bone marrow to affect cycling on human progenitors, umbilical cord blood cells were obtained. Either the total mononuclear cell fraction obtained after separation on Ficoll or the CD34^+ fraction obtained after fractionation on anti-CD34 affinity columns (CellPro Inc.) was used. Cells were incubated for 48 hours in vitro in the presence of interleukin 3 (IL-3) and stem cell factor (SCF) (100 ng/ml each) in order to ensure that the early stem cells were in cycle. After this preincubation, cycling assays were conducted as described in Example 14 for the mouse except that CFU-GEMM (instead of CFU-MIX) were counted on Day 18 after plating.
The human cord blood CFU-GEMM cycling assay was conducted as in Example 19. Specifically, mononuclear cells were isolated from human umbilical cord blood cells and adjusted to 24×10^4 cells/ml in IMDM tissue culture medium supplemented with 10% FBS, 100 ng/ml kit ligand and 100 ng/ml human IL-3. The cells were incubated for 48 hours at 37° C.
After incubation, cells were washed and resuspended in serun-free NDM at a concentration of 10^6 cells/ml. One ml of cells was added to each of two polypropylene tubes per condition and the cycling assay conducted as in Example 24 for mouse bone marrow. After the Ara C incubation cells were washed with cold NDM and adjusted to 10,000 to 20,000 cells per 0.5 ml IMDM and mixed with 5 ml Methocult H4433 (Stem Cell Technologies). Alternatively, Methocult H4435 methylcellulose medium (Stem Cell Technologies) was used in which case the cell concentration was adjusted to 2500-5000 cells per 0.5 ml IMDM. The cells were plated as in Example 24 and CFU-GEMM colonies scored on days 14-18.

[3] = Distribution of ubiquitin fusion proteins between soluble fraction and precipitate of E. coli lysate (SDS-PAGE); assay type: physicochemical; conditions: after centrifugation of the bacterial lysate
Method: To obtain protein for assay, 100 ml starter cultures in 250 ml shake flasks were grown from single colonies by overnight incubation (16-20 hours) in 2×YT medium with ampicillin (100 μg/ml), neomycin (10 μg/ml) and 1% glucose. Shaker flask cultures were maintained at 30° C. and 250 rpm in a New Brunswick environmental shaker incubator. The next morning the culture was diluted to liter with medium Cells were induced by IPTG addition to 1 mM (final dilution) at OD600=0.5 and harvested at OD600=0.8 by centrifugation. The harvested cells were resuspended in hypotonic lysis buffer (100 μl of 50 mM Tris, pH 10.0). The bacterial cells were lysed by subjecting the suspension to three cycles of freeze-thaw (dry ice-ethanol bath for freezing and 60° C. for thawing). The suspension was then sonicated for 10 min and centrifuged at 12,000 g for 10 min. The resulting supernatant was designated as “S1”. The cell pellet was resuspended in 50 mM Tris, pH10 and 2×SDS tricine loading buffer (Novex, San Diego, Calif.) (1:1). The mixture was then heated at 95° C. for 15 min and centrifuged at 12,000 g for 10 min. The portion of the precipitate capable of being resolubilized in this manner was called “P1”. The portion of the precipitate derived from the remaining pellet was called “P2”. P2 was resuspended in loading buffer as for P1. Samples from S1, P1 and P2 were analyzed by SDS-PAGE. […]

CFU-S = CFU-S proliferation assay, 3H-Thymidine suicide method (bone marrow incubated with test fractions); assay type: cell-based, mouse; conditions: Table 8, bone marrow from testosterone treated mice
Method: For the detection of stem cells proliferation the number of CFU-S in S-phase of the cell cycle was measured by the ^3H-Thymidine “suicide” method (Becker et al., Blood 26:296-308, 1965).
Immature hematopoietic progenitors-Colony Forming Units in spleen (CFU-S)—can be detected in vivo by forming macroscopic colonies in the spleens of lethally irradiated mice, 8-12 days after the intravenous injection of hematopoietic cells (Till & McCulloch, 1961).
For the standard CFU-S proliferation assay the method of ^3H-Thymidine “suicide” is usually applied (Becker et al., 1965). The method is based on incorporation of radiolabelled Thymidine, (^3H-Thymidine) a precursor of DNA into cells during DNA synthesis. The CFU-S which are in S-phase of the cycle at the time of testing, are killed by the high radioactivity and therefore not able to form colonies in spleen.
The inhibitor testing can not be done with the bone marrow stem cell population from unstimulated animals, as far as the inhibitor only effects cycling CFU-S, which are as low as 7-10% of the total CFU-S population in the bone marrow of normal mice.
To stimulate CFU-S proliferation, phenylhydrazine (PHZ), or sublethal irradiation were used (Lord, 1976).
The TSP induced stimulation of CFU-S proliferation within 20-24 hours after injection and the effect could be seen for at least 7 days.
The procedure used for the screening of the fractions during purification of the Inhibitor was as follows:
Mice: BDF1 or CBF1 mice strains were used throughout all testing.
Donor mice were treated with a 10 mg/100 g dose of TSP by intraperitoneal injection of 0.2 ml/mouse in order to induce 30-35% of the CFU-S into S-phase.
Twenty-four hours later the bone marrow is taken from the femurs for the cell suspension preparation. […]
Recipient spleens are harvested on day 9-12 and fixed in Tellesnitsky's solution; the colonies are scored by eye score. The percentage of cells in S-phase are calculated using the formula. […]

mouse bone marrow cells = test: Colony formation after pre-incubation of bone marrow cells from 5FU-treated mice; assay type: cell-based; conditions: 4 hours pre-incubation
Method: The purpose of this experiment was to compare the inhibitory effects of pre-incubation with pINPROL and MIP-1α on mouse bone marrow cells in vitro.
The following procedure was used:
in vivo: BDF1 mice, 6-15 weeks of age, are injected with 200 mg/kg 5FU i.p. 48 hours before harvesting marrow from the femurs.
in vitro: A single cell pooled suspension is counted and 5×10^6 cells are incubated in a total of 2 mls with or without pINPROL or MIP-1α, with 5% horse serum, IMDM media with added L-glutamine, at 37° C. and 5% CO2 for 4 hours. The cells are then washed twice and recounted. They are plated in methylcellulose in the following final conditions:
20 ng/ml recombinant murine IL-3
Plates were incubated for 11 days at 37° C. and 5% CO2 in 100% humidity. Colonies more than 50 cells were counted.

HPP-CFC = HPP-CFC assay after 4 hour pre-incubation; assay type: cell-based, mouse; conditions: 200 ng/ml, day 14
Method: An in vitro assay for assessing murine reconstituting stem cells and early precursors is the high proliferative potential colony ([…]) assay; other related assays, e.g., CFU-A, CFU-GM, CFU-E, and CFU-GEMM, detect progressively restricted progenitor populations (M. Moore, Blood […]:2122-2128, 1991).
BDF1 mice were treated with 5-fluorouracil (200 mg/kg i.p.) before their bone marrow was assayed for HPP-CFC numbers. Cells were washed by centrifugation and incubated at densities of 10^6 to 5×10^6/ml in medium with either no added agent (Controls), pINPROL (25 ng/ml) or MIP-1α (200 ng/ml) for 4 hours. After incubation, cells were washed and plated in agar (0.3%) with 30% FCS and combined conditioned medium from 5637 and WEHI-3B cell lines (7.5% of each conditioned medium, as recommended by Sharp et al., 1991). Plating concentration was 5×10^4 cells/ml in 60 mm dishes.

Row | Molecule | % Kill (CFU-MIX [1]) [%] | % Kill (CFU-MIX [2]) [%] | % Kill (CFU-GEMM; 1 ng/ml) [%] | % Kill (CFU-GEMM; 10 ng) [%] | % Kill (CFU-GEMM; 100 ng/ml) [%] | fraction of bacterial lysate containing the peptide [3] | % Kill (CFU-S; 40 ng/ml) [%] | % Kill (CFU-S; 200 ng/ml) [%] | Percent of Control (mouse bone marrow cells; colonies after 11 days) [%] | Colony Number (mouse bone marrow cells; colonies more than 50 cells after 11 days) | % of Control (HPP-CFC) [%] | HPP-CFU (HPP-CFC)
1 | Cys-Phe-Pro-His-Phe-Asp-Leu-Ser-His-Gly-Ser-Ala-Gln-Val-Cys (CFPHFDLSHGSAQVC; disulfide 1-15 (inferred)) [Cyclic Peptide 43-55, cyclic derivative of the 43-55 peptide] | 0 | 14 | 32 | 0 | 11 | contained in the soluble fraction | – | – | – | – | – | –
2 | Hbg: C4 Reverse-phase purified porcine hemoglobin beta chain (derived from 2X crystallized pig hemoglobin) | – | – | – | – | – | – | 7 | 25 | – | – | – | –
3 | B1 | – | – | – | – | – | – | – | 13 | 114 | 35.25 | 101 | 15.8 ± 0.9

From US6784155B1, “Inhibitor and stimulator of stem cell proliferation and uses thereof” (Wellstat Therapeutics Corporation, priority 1996, dated 2004)
